What was measured:
[1] = system: normal NK cells expanded with K562-aAPC; assay: percent inhibition of viability; higher = more inhibition; details: 72 h, IL-2 2.5 ng/mL
Procedure: (§1)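 Drug sensitivity and resistance testing on K562-aAPC-expanded normal NK cells: 5 concentrations (10-fold steps over a 10,000-fold range), 72 h at 37 °C, viability by CellTiter-Glo normalised to DMSO and benzethonium chloride controls; DSS from the fitted curve.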

DERL-7 (IL-2 2.5 ng/mL) [2] = assay: as above; details: 72 h
IMC-1 (IL-2 20 ng/mL) [3] = assay: as above; details: 72 h
KAI3 (IL-2 2.5 ng/mL) [4] = assay: as above; details: 72 h
KHYG-1 (IL-2 2.5 ng/mL) [5] = assay: as above; details: 72 h
NK-92 (IL-2 2.5 ng/mL) [6] = assay: as above; details: 72 h
NK-YS (IL-2 2.5 ng/mL) [7] = assay: as above; details: 72 h
NKL (IL-2 2.5 ng/mL) [8] = assay: as above; details: 72 h
SNK-6 (IL-2 2.5 ng/mL) [9] = assay: as above; details: 72 h
YT (IL-2 2.5 ng/mL) [10] = assay: as above; details: 72 h
[11] = system: normal primary NK cells, pool 1 (3 donors) (IL-2 2.5 ng/mL); assay: as above; details: 72 h
[12] = system: normal primary NK cells, pool 1 (3 donors), resting (IL-2 0 ng/mL); assay: as above; details: 72 h
[13] = system: normal primary NK cells, pool 2 (3 donors) (IL-2 2.5 ng/mL); assay: as above; details: 72 h
[14] = system: normal primary NK cells, pool 3 (3 donors) (IL-2 2.5 ng/mL); assay: as above; details: 72 h
[15] = system: normal NK cells expanded with K562-aAPC; assay: drug sensitivity score (DSS) (DSS units); higher = more sensitive; extreme values may be limits of the assay; details: 72 h; IL-2 2.5 ng/mL
Procedure: as §1

DERL-7 (IL-2 2.5 ng/mL) [16] = assay: as above; details: 72 h
IMC-1 (IL-2 20 ng/mL) [17] = assay: as above; details: 72 h
KAI3 (IL-2 2.5 ng/mL) [18] = assay: as above; details: 72 h
KHYG-1 (IL-2 2.5 ng/mL) [19] = assay: as above; details: 72 h
NK-92 (IL-2 2.5 ng/mL) [20] = assay: as above; details: 72 h
NK-YS (IL-2 2.5 ng/mL) [21] = assay: as above; details: 72 h
NKL (IL-2 2.5 ng/mL) [22] = assay: as above; details: 72 h
SNK-6 (IL-2 2.5 ng/mL) [23] = assay: as above; details: 72 h
YT (IL-2 2.5 ng/mL) [24] = assay: as above; details: 72 h
[25] = system: normal primary NK cells, pool 1 (3 donors) (IL-2 2.5 ng/mL); assay: as above; details: 72 h
[26] = system: normal primary NK cells, pool 1 (3 donors), resting (IL-2 0 ng/mL); assay: as above; details: 72 h
[27] = system: normal primary NK cells, pool 2 (3 donors) (IL-2 2.5 ng/mL); assay: as above; details: 72 h
[28] = system: normal primary NK cells, pool 3 (3 donors) (IL-2 2.5 ng/mL); assay: as above; details: 72 h

CC(C)(O)CC(=O)NCCn1ccc2ncnc(Nc3ccc(Oc4cccc(C(F)(F)F)c4)c(Cl)c3)c21 [TAK-285] (max concentration tested 2500 nM)
percent inhibition of viability ([1]; 0.25 nM): -3.9% | percent inhibition of viability ([1]; 2.5 nM): -5.59% | percent inhibition of viability ([1]; 25 nM): -4.49% | percent inhibition of viability ([1]; 250 nM): -4.65% | percent inhibition of viability ([1]; 2500 nM): -10.5% | percent inhibition of viability (DERL-7 (IL-2 2.5 ng/mL) [2]; 0.25 nM): 0.57% | percent inhibition of viability (DERL-7 (IL-2 2.5 ng/mL) [2]; 2.5 nM): -0.5% | percent inhibition of viability (DERL-7 (IL-2 2.5 ng/mL) [2]; 25 nM): -0.21% | percent inhibition of viability (DERL-7 (IL-2 2.5 ng/mL) [2]; 250 nM): -6.99% | percent inhibition of viability (DERL-7 (IL-2 2.5 ng/mL) [2]; 2500 nM): 3.24% | percent inhibition of viability (IMC-1 (IL-2 20 ng/mL) [3]; 0.25 nM): -2.98% | percent inhibition of viability (IMC-1 (IL-2 20 ng/mL) [3]; 2.5 nM): -2.02% | percent inhibition of viability (IMC-1 (IL-2 20 ng/mL) [3]; 25 nM): -5.78% | percent inhibition of viability (IMC-1 (IL-2 20 ng/mL) [3]; 250 nM): -4.36% | percent inhibition of viability (IMC-1 (IL-2 20 ng/mL) [3]; 2500 nM): -2.28% | percent inhibition of viability (KAI3 (IL-2 2.5 ng/mL) [4]; 0.25 nM): 3.24% | percent inhibition of viability (KAI3 (IL-2 2.5 ng/mL) [4]; 2.5 nM): 6.26% | percent inhibition of viability (KAI3 (IL-2 2.5 ng/mL) [4]; 25 nM): -7.58% | percent inhibition of viability (KAI3 (IL-2 2.5 ng/mL) [4]; 250 nM): 2.41% | percent inhibition of viability (KAI3 (IL-2 2.5 ng/mL) [4]; 2500 nM): -4.47% | percent inhibition of viability (KHYG-1 (IL-2 2.5 ng/mL) [5]; 0.25 nM): -0.17% | percent inhibition of viability (KHYG-1 (IL-2 2.5 ng/mL) [5]; 2.5 nM): -1.01% | percent inhibition of viability (KHYG-1 (IL-2 2.5 ng/mL) [5]; 25 nM): -1.95% | percent inhibition of viability (KHYG-1 (IL-2 2.5 ng/mL) [5]; 250 nM): 2.13% | percent inhibition of viability (KHYG-1 (IL-2 2.5 ng/mL) [5]; 2500 nM): -6.23% | percent inhibition of viability (NK-92 (IL-2 2.5 ng/mL) [6]; 0.25 nM): 3.91% | percent inhibition of viability (NK-92 (IL-2 2.5 ng/mL) [6]; 2.5 nM): -1.52% | percent inhibition of viability (NK-92 (IL-2 2.5 ng/mL) [6]; 25 nM): -0.33% | percent inhibition of viability (NK-92 (IL-2 2.5 ng/mL) [6]; 250 nM): 10.9% | percent inhibition of viability (NK-92 (IL-2 2.5 ng/mL) [6]; 2500 nM): 11.6% | percent inhibition of viability (NK-YS (IL-2 2.5 ng/mL) [7]; 0.25 nM): -1.3% | percent inhibition of viability (NK-YS (IL-2 2.5 ng/mL) [7]; 2.5 nM): -5.16% | percent inhibition of viability (NK-YS (IL-2 2.5 ng/mL) [7]; 25 nM): -2.82% | percent inhibition of viability (NK-YS (IL-2 2.5 ng/mL) [7]; 250 nM): 0.41% | percent inhibition of viability (NK-YS (IL-2 2.5 ng/mL) [7]; 2500 nM): -0.02% | percent inhibition of viability (NKL (IL-2 2.5 ng/mL) [8]; 0.25 nM): -13.2% | percent inhibition of viability (NKL (IL-2 2.5 ng/mL) [8]; 2.5 nM): -11.7% | percent inhibition of viability (NKL (IL-2 2.5 ng/mL) [8]; 25 nM): -12.7% | percent inhibition of viability (NKL (IL-2 2.5 ng/mL) [8]; 250 nM): -16.1% | percent inhibition of viability (NKL (IL-2 2.5 ng/mL) [8]; 2500 nM): -29.3% | percent inhibition of viability (SNK-6 (IL-2 2.5 ng/mL) [9]; 0.25 nM): 5.49% | percent inhibition of viability (SNK-6 (IL-2 2.5 ng/mL) [9]; 2.5 nM): 3.7% | percent inhibition of viability (SNK-6 (IL-2 2.5 ng/mL) [9]; 25 nM): -2.84% | percent inhibition of viability (SNK-6 (IL-2 2.5 ng/mL) [9]; 250 nM): -9.96% | percent inhibition of viability (SNK-6 (IL-2 2.5 ng/mL) [9]; 2500 nM): -12.5% | percent inhibition of viability (YT (IL-2 2.5 ng/mL) [10]; 0.25 nM): 0.86% | percent inhibition of viability (YT (IL-2 2.5 ng/mL) [10]; 2.5 nM): -3.2% | percent inhibition of viability (YT (IL-2 2.5 ng/mL) [10]; 25 nM): 0.37% | percent inhibition of viability (YT (IL-2 2.5 ng/mL) [10]; 250 nM): 1.42% | percent inhibition of viability (YT (IL-2 2.5 ng/mL) [10]; 2500 nM): -3.68% | percent inhibition of viability ([11]; 0.25 nM): -5.45% | percent inhibition of viability ([11]; 2.5 nM): -7.93% | percent inhibition of viability ([11]; 25 nM): -3.5% | percent inhibition of viability ([11]; 250 nM): -0.56% | percent inhibition of viability ([11]; 2500 nM): 2.32% | percent inhibition of viability ([12]; 0.25 nM): -19.2% | percent inhibition of viability ([12]; 2.5 nM): -12% | percent inhibition of viability ([12]; 25 nM): 10% | percent inhibition of viability ([12]; 250 nM): 5.74% | percent inhibition of viability ([12]; 2500 nM): 6.13% | percent inhibition of viability ([13]; 0.25 nM): -6.38% | percent inhibition of viability ([13]; 2.5 nM): -6.44% | percent inhibition of viability ([13]; 25 nM): -5.09% | percent inhibition of viability ([13]; 250 nM): -7.05% | percent inhibition of viability ([13]; 2500 nM): -6.29% | percent inhibition of viability ([14]; 0.25 nM): -5.51% | percent inhibition of viability ([14]; 2.5 nM): -2.63% | percent inhibition of viability ([14]; 25 nM): -4.05% | percent inhibition of viability ([14]; 250 nM): -8.03% | percent inhibition of viability ([14]; 2500 nM): -14.8% | drug sensitivity score [15]: 0.89 | drug sensitivity score (DERL-7 (IL-2 2.5 ng/mL) [16]): 0 | drug sensitivity score (IMC-1 (IL-2 20 ng/mL) [17]): 0.89 | drug sensitivity score (KAI3 (IL-2 2.5 ng/mL) [18]): 0 | drug sensitivity score (KHYG-1 (IL-2 2.5 ng/mL) [19]): 0 | drug sensitivity score (NK-92 (IL-2 2.5 ng/mL) [20]): 0.37 | drug sensitivity score (NK-YS (IL-2 2.5 ng/mL) [21]): 0 | drug sensitivity score (NKL (IL-2 2.5 ng/mL) [22]): 0.89 | drug sensitivity score (SNK-6 (IL-2 2.5 ng/mL) [23]): 0 | drug sensitivity score (YT (IL-2 2.5 ng/mL) [24]): 0 | drug sensitivity score [25]: 0 | drug sensitivity score [26]: 0.01 | drug sensitivity score [27]: 0.89 | drug sensitivity score [28]: 0.89

From the supplement of paper PMC5908809
